Measured values reported in patent US20220002279A1, “NOVEL IMIDAZOLE DERIVATIVE” (priority 2018, published 2022).
Values after ≈ are worked out from the molar mass of the structure shown.

Columns and labels:
[1] = molecular target: T1, Escherichia coli LpxC enzyme (Escherichia coli, UniProt P0A725); experiment: Inhibitory activity on Escherichia coli LpxC enzyme (LCMS method); assay type: biochemical
T1 construct: made in house; host or cells: Escherichia coli
T1 sequence (P0A725 1-305): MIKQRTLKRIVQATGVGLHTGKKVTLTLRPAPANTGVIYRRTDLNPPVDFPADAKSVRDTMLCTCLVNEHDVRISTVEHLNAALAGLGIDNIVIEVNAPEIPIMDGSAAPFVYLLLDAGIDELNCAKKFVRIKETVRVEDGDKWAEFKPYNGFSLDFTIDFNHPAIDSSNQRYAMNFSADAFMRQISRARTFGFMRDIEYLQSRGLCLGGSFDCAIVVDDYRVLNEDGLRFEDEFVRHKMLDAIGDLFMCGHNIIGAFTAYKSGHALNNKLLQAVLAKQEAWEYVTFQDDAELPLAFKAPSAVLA
Description: Test Example 3 Evaluation of the Inhibitory Activity on Escherichia coli LpxC Enzyme (LCMS Method)
To assay the activity of Escherichia coli LpxC enzyme, LpxC was reacted with its substrate, UDP-3-O-(R-3-hydroxymyristoyl)-N-acetylglucosamine, and the amount of the reaction product was quantified by liquid chromatography tandem mass spectrometry.
Specifically, to 3.1 nmol/L Escherichia coli LpxC enzyme (as acquired by preparing chromosomal DNA from Escherichia coli, obtaining the Escherichia coli LpxC genes by PCR (polymerase chain reaction) using LpxC specific primer, and incorporating the genes into a vector, followed by expression using Escherichia coli), 20 μmol/L UDP-3-O-(R-3-hydroxymyristoyl)-N-acetylglucosamine (Alberta) was added, and the mixture was incubated at room temperature for 120 minutes. This reaction was performed in a 40 mmol/L-2-morpholinoethanesulfonic acid buffer solution (pH 6.5) containing 0.02% Brij 35, 25 nmol/L-zinc chloride, and 80 μmol/L-dithiothreitol. The reaction was terminated by the addition of acetonitrile containing 25 μmol/L-UDP-N-acetylglucosamine as an internal standard to the reaction mixture. Centrifugation was performed and the amount of the substrate and the reaction product in the supernatant was detected by liquid chromatography tandem mass spectrometry. An inhibition curve was obtained by performing the aforementioned reaction in the presence of various concentrations of test compounds. From this inhibition curve, the concentration of test compound at which the amount of the reaction product was suppressed by 50% (IC50 value) was determined, which was used as an index for the inhibitory activity on Escherichia coli LpxC enzyme.

[2] = system: Escherichia coli strain ATCC25922; experiment: Antimicrobial activity, MIC by broth microdilution; assay type: cell-based; settings: ATCC25922, 18 h, cation-adjusted Mueller-Hinton broth, about 5×10^5 CFU/mL, 35° C., about 18 hours, read-out: MIC Escherichia coli ATCC25922
In short: (§1)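 CLSI-based broth microdilution in cation-adjusted Mueller-Hinton broth, inoculum about 5×10^5 CFU/mL from overnight heart infusion agar culture. Incubation 35° C. about 18 h; MIC is the lowest concentration with no visible growth.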

[3] = system: Klebsiella pneumoniae strain ATCC13883; experiment: Antimicrobial activity, MIC by broth microdilution; assay type: cell-based; settings: ATCC13883, cation-adjusted Mueller-Hinton broth, about 5×10^5 CFU/mL, 35° C., about 18 hours, read-out: MIC Klebsiella pneumoniae ATCC13883
In short: as §1

[4] = system: Pseudomonas aeruginosa strain ATCC27853; experiment: Antimicrobial activity, MIC by broth microdilution; assay type: cell-based; settings: ATCC27853, 18 h, cation-adjusted Mueller-Hinton broth, about 5×10^5 CFU/mL, 35° C., about 18 hours, read-out: MIC Pseudomonas aeruginosa ATCC27853
In short: as §1

[5] = molecular target: T2, Pseudomonas aeruginosa LpxC enzyme (Pseudomonas aeruginosa, UniProt P47205); experiment: Inhibitory activity on Pseudomonas aeruginosa LpxC enzyme (fluorescamine method); assay type: biochemical; settings: fluorescamine detection; 3.6 nmol/L enzyme, 20 μmol/L substrate, pH 8.0, 60 min
T2 construct: made in house; host or cells: Escherichia coli
T2 sequence (P47205 1-303): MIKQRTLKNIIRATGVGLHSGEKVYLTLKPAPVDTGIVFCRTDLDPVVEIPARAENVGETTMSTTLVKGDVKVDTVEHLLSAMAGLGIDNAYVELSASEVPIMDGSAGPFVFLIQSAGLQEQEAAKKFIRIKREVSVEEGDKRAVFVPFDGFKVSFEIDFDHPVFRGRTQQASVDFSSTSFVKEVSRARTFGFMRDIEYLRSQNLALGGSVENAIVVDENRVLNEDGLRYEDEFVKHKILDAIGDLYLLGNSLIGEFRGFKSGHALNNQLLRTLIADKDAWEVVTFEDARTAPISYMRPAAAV
Description: Test Example 1 Evaluation of the Inhibitory Activity on Pseudomonas aeruginosa LpxC Enzyme (Fluoresamine Method)
To assay the activity of Pseudomonas aeruginosa LpxC enzyme, LpxC was reacted with its substrate, UDP-3-O-(R-3-hydroxydecanoyl)-N-acetylglucosamine, and the amount of the reaction product was quantified by the amino groups present in the product.
Specifically, to 3.6 nmol/L Pseudomonas aeruginosa LpxC enzyme (as acquired by preparing chromosomal DNA from Pseudomonas aeruginosa, obtaining the Pseudomonas aeruginosa LpxC genes by PCR (polymerase chain reaction) using LpxC specific primer, and incorporating the genes into a vector, followed by expression using Escherichia coli), 20 μmol/L UDP-3-O-(R-3-hydroxydecanoyl)-N-acetylglucosamine (Carbosynth) was added, and the mixture was incubated at room temperature for 60 minutes. This reaction was performed in a 40 mmol/L-HEPES buffer solution (pH 8.0) containing 0.02% Brij 35 and 25 nmol/L-zinc chloride. The reaction was terminated by the addition of 1.0 mg/mL-fluorescamine dissolved in a solvent obtained by mixing an equal amount of acetonitrile and dimethylformamide with the reaction mixture, and then, a 0.2 mol/L-sodium phosphate buffer solution (pH 8.0) was added thereto, and the amount of the reaction product was detected at an excitation wavelength/fluorescence wavelength=390 nm/495 nm. An inhibition curve was obtained by performing the aforementioned reaction in the presence of various concentrations of test compounds. From this inhibition curve, the concentration of test compound at which the amount of the reaction product was suppressed by 50% (IC50 value) was determined, which was used as an index for the inhibitory activity on Pseudomonas aeruginosa LpxC enzyme.

[6] = molecular target: T1, Escherichia coli LpxC enzyme; experiment: Inhibitory activity on Escherichia coli LpxC enzyme (fluorescamine method); assay type: biochemical; settings: fluorescamine detection; 3.1 nmol/L enzyme, 20 μmol/L substrate, pH 6.5, 120 min; read-out: IC50 (inhibitory activity on Escherichia coli LpxC enzyme, Fluoresamine method)
In short: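 LpxC reacted with UDP-3-O-(R-3-hydroxymyristoyl)-N-acetylglucosamine; product amine quantified after fluorescamine stop and pH 8.0 phosphate buffer addition, at 390 nm/495 nm. Inhibition curve built from a range of test compound concentrations.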

[7] = LC-MS/MS detection, 3.1 nmol/L enzyme, 20 μmol/L substrate, pH 6.5, 120 min, read-out: IC50 (inhibitory activity on Escherichia coli LpxC enzyme, LCMS method)

## C[C@H](O)c1nccn1Cc1cc(-c2ccc(C#CC34CC(N)(C3)C4)cc2)no1 [Compound 28, (1S)-1-{1-[(3-(4-[(3-aminobicyclo[1.1.1]pentane-1-yl)ethynyl]phenyl}-1,2-oxazol-5-yl)methyl]-1H-imidazol-2-yl}ethan-1-ol]
[1]; [7]
  IC50: 0.0646 µM
[2]
  MIC: 0.5 mg/L (≈ 1.34 µM)
[3]
  MIC: 2 mg/L (≈ 5.34 µM)
[4]
  MIC: 64 mg/L (≈ 171 µM)

## C[C@H](O)c1nccn1Cc1cc(-c2ccc(C#CC3CC(N)(C#N)C3)cc2)on1 (stereo partly drawn) [Compound 24, 1-Amino-3-({4-[3-({2-[(1S)-1-hydroxyethyl]-1H-imidazol-1-yl}methyl)-1,2-oxazol-5-yl]phenyl}ethynyl)cyclobutane-1-carbonitrile]
[1]; [7]
  IC50: < 0.037 µM
[2]
  MIC: 2 mg/L (≈ 5.16 µM)
[3]
  MIC: 4 mg/L (≈ 10.3 µM)
[4]
  MIC: 128 mg/L (≈ 330 µM)

## C[C@H](O)c1nccn1Cc1cc(-c2ccc(C#CC3CC(N)(C(N)=O)C3)cc2)on1 (stereo partly drawn) [Compound 25, 1-Amino-3-({4-[3-({2-[(1S)-1-hydroxyethyl]-1H-imidazol-1-yl}methyl)-1,2-oxazol-5-yl]phenyl}ethynyl)cyclobutane-1-carboxamide]
[1]; [7]
  IC50: 0.0522 µM
[2]
  MIC: 2 mg/L (≈ 4.93 µM)
[3]
  MIC: 8 mg/L (≈ 19.7 µM)
[4]
  MIC: 32 mg/L (≈ 78.9 µM)

## C[C@H](O)c1nccn1Cc1cc(-c2ccc(C#CC(C)(C)N)cc2)on1 [Compound 33]
[1]; [7]
  IC50: > 3 µM
[2]
  MIC: 32 mg/L (≈ 91.3 µM)
[3]
  MIC: 64 mg/L (≈ 183 µM)
[4]
  MIC: > 128 mg/L

## C[C@H](O)c1nccn1[C@H](CN)c1cc(-c2ccc(C#C[C@@H]3[C@H]4CN(CCO)C[C@@H]34)cc2)on1 [Compound 22, (1S)-1-(1-{(1R)-2-Amino-1-[5-(4-{[(1R,5S,6s)-3-(2-hydroxyethyl)-3-azabicyclo[3.1.0]hexan-6-yl]ethynyl}phenyl)-1,2-oxazol-3-yl]ethyl}-1H-imidazol-2-yl)ethan-1-ol]
[1]; [7]
  IC50: 0.655 µM
[2]
  MIC: 2 mg/L (≈ 4.47 µM)
[3]
  MIC: 4 mg/L (≈ 8.94 µM)
[4]
  MIC: 2 mg/L (≈ 4.47 µM)

## C[C@H](O)c1nccn1[C@H](CN)c1cc(-c2ccc(C#CC34CC(N)(C3)C4)cc2)on1 [Compound 20, (1S)-1-{1-[(1R)-2-amino-1-(5-{4-[(3-aminobicyclo[1.1.1]pentan-1-yl)ethynyl]phenyl}-1,2-oxazol-3-yl)ethyl]-1H-imidazol-2-yl}ethan-1-ol]
[1]; [7]
  IC50: 0.279 µM
[2]
  MIC: 0.5 mg/L (≈ 1.24 µM)
[3]
  MIC: 2 mg/L (≈ 4.96 µM)
[4]
  MIC: 4 mg/L (≈ 9.91 µM)

## C[C@H](O)c1nccn1[C@H](CN)c1cc(-c2ccc(C#CC3(N)CC3)cc2)on1 [Compound 21, (1S)-1-{1-[(1R)-2-amino-1-(5-(4-[(1-aminocyclopropyl)ethynyl]phenyl}-1,2-oxazol-3-yl)ethyl]-1H-imidazol-2-yl}ethan-1-ol]
[1]; [7]
  IC50: 0.282 µM
[2]
  MIC: 2 mg/L (≈ 5.3 µM)
[3]
  MIC: 8 mg/L (≈ 21.2 µM)
[4]
  MIC: 32 mg/L (≈ 84.8 µM)

## C[C@H](O)c1nccn1Cc1cc(-c2ccc(C#CC3(N)CC3)cc2)no1 [Compound 27, (1S)-1-{1-[(3-(4-[(1-aminocyclopropyl)ethynyl]phenyl}-1,2-oxazol-5-yl)methyl]-1H-imidazol-2-yl}ethan-1-ol]
[1]; [7]
  IC50: 0.193 µM
[2]
  MIC: 1 mg/L (≈ 2.87 µM)
[3]
  MIC: 4 mg/L (≈ 11.5 µM)
[4]
  MIC: > 128 mg/L

## C[C@H](O)c1nccn1Cc1cc(-c2ccc(C#CC3(N)COC3)cc2)on1 [Compound 40, (1S)-1-{1-[(5-(4-[(3-aminooxetan-3-yl)ethynyl]phenyl}-1,2-oxazol-3-yl)methyl]-1H-imidazol-2-yl}ethan-1-ol]
[1]; [7]
  IC50: 0.14 µM
[2]
  MIC: 16 mg/L (≈ 43.9 µM)
[3]
  MIC: 32 mg/L (≈ 87.8 µM)
[4]
  MIC: > 128 mg/L

## Cc1cnc([C@H](C)O)n1Cc1cc(-c2ccc(C#CC3(N)CC3)cc2)on1 [Compound 64, (1S)-1-{1-[(5-{4-[(1-Aminocyclopropyl)ethynyl]phenyl}-1,2-oxazol-3-yl)methyl]-5-methyl-1H-imidazol-2-yl}ethan-1-ol]
[1]
  IC50: 0.176 µM
[2]
  MIC: 2 mg/L (≈ 5.52 µM)
[3]
  MIC: 4 mg/L (≈ 11 µM)
[4]
  MIC: > 128 mg/L

## C[C@H](O)c1nccn1[C@H](CN)c1cc(-c2ccc(C#C[C@H]3C[C@H](O)C3)cc2)on1 [Compound 70, trans-3-[(4-{3-[(1R)-2-Amino-1-{2-[(1S)-1-hydroxyethyl]-1H-imidazol-1-yl}ethyl]-1,2-oxazol-5-yl}phenyl)ethynyl]cyclobutan-1-ol]
[1]; [7]
  IC50: < 0.037 µM
[2]
  MIC: 0.25 mg/L (≈ 0.637 µM)
[3]
  MIC: 1 mg/L (≈ 2.55 µM)
[4]
  MIC: 4 mg/L (≈ 10.2 µM)

## C[C@H](O)c1nccn1Cc1cc(-c2ccc(C#CC3(N)CCOCC3)cc2)on1 [Compound 29, (1S)-1-{1-[(5-{4-[(4-aminooxan-4-yl)ethynyl]phenyl}-1,2-oxazol-3-yl)methyl]-1H-imidazol-2-yl}ethan-1-ol]
[1]; [7]
  IC50: > 3 µM
[2]
  MIC: 64 mg/L (≈ 163 µM)
[3]
  MIC: 128 mg/L (≈ 326 µM)
[4]
  MIC: > 128 mg/L

## C[C@H](O)c1nccn1Cc1cc(-c2ccc(C#C[C@@H]3[C@H]4CN(C(=O)CC(C)(C)N)C[C@@H]34)cc2)on1 [Compound 62, 3-amino-1-[(1R,5S,6s)-6-((4-[3-((2-[(1S)-1-hydroxyethyl]-1H-imidazol-1-yl}methyl)-1,2-oxazol-5-yl]phenyl)ethynyl)-3-azabicyclo[3.1.0]hexan-3-yl]-3-methylbutan-1-one]
[1]; [7]
  IC50: < 0.037 µM
[2]
  MIC: 8 mg/L (≈ 16.9 µM)
[3]
  MIC: 32 mg/L (≈ 67.6 µM)
[4]
  MIC: 8 mg/L (≈ 16.9 µM)

## C[C@H](O)c1nccn1Cc1cc(-c2ccc(C#CC3CC3CO)cc2)on1 (stereo in doubt) [Compound 7, (1S)-1-(1-{[5-(4-{[trans-2-(hydroxymethyl)cyclopropyl]ethynyl}phenyl)-1,2-oxazol-3-yl]methyl}-1H-imidazol-2-yl)ethan-1-ol]
[5]
  IC50: 0.00444 µM
[6]
  IC50: 0.0154 µM
[2]
  MIC: 0.25 mg/L (≈ 0.688 µM)
[3]
  MIC: 0.5 mg/L (≈ 1.38 µM)
[4]
  MIC: 16 mg/L (≈ 44 µM)

## C[C@H](O)c1nccn1Cc1cc(-c2ccc(C#CCCCO)cc2F)on1 [Compound 3, 5-{3-fluoro-4-[3-({2-[(1S)-1-hydroxyethyl]-1H-imidazol-1-yl}methyl)-1,2-oxazol-5-yl]phenyl}pent-4-yn-1-ol]
[5]
  IC50: 0.00436 µM
[6]
  IC50: 0.0161 µM
[2]
  MIC: 0.5 mg/L (≈ 1.35 µM)
[3]
  MIC: 1 mg/L (≈ 2.71 µM)
[4]
  MIC: 32 mg/L (≈ 86.6 µM)
